Measured values: PMC7503767, “Alkoxyamines Designed as Potential Drugs against Plasmodium and Schistosoma Parasites” (Molecules, 2020)
Like-named read-outs stand apart in the source and are kept apart here. Marks after values point to notes of the source that are not given here.

Columns and labels:
[1] = tested on: P. falciparum F32-TEM (artemisinin-sensitive strain); experiment: Standard chemosensitivity assay (SYBR Green I), F32-TEM; type: cell-based, Plasmodium falciparum; details: Plasmodium falciparum
Method: (§1) F32-ART5, an artemisinin-resistant strain and F32-TEM, an artemisinin-sensitive strain, were obtained from the parental clone F32-Tanzania, respectively under regular drug pressure cycles of increasing artemisinin concentrations for 5 years and without any artemisinin pressure. After these drug pressure cycles allowing selection of the F32-ART5 strain, regular drug pressures were performed to maintain its phenotype. […] Briefly, parasites were cultured in RPMI 1640 (Fisher Scientific, Waltham, Illkirch-Graffenstaden, France) supplemented with 5% type AB human serum (Etablissement français du Sang, Toulouse, France) and adjusted at a parasitemia of 1% and 2% hematocrit with type O human at 37 °C and 5% CO2. Parasite development was daily monitored by Giemsa staining.
(§2) Briefly, for the determination of IC50 values, the chemosensitivity assay was carried out in 96-well culture plates on D-sorbitol ring-stage synchronized parasites and antiplasmodial activities were evaluated using the SYBR Green I method. Drug testing was performed in triplicates in a dose range of 5 to 7 concentrations. […] Parasites were left to proliferate with the given compounds for 48 h at 37 °C and 5% CO2. After this period, pellets were washed 3 times in sterile PBS prior to putting the plates at −20 °C overnight to lyse all red blood cells. The following day, the plates were thawed at room temperature, 100 µL of each well was transferred into a black 96-well plate to which another 100 µL of 2× PBS-diluted SYBR Green I (Sigma-Aldrich) was added and left to incubate for 2 h at room temperature prior to reading the plates on BioTek FL× 800 Microplate Fluorescence Reader (λexcitation = 485 nm, λemission = 528 nm).
(§3) IC50 values were determined using GraphPad Prism by drawing the curve % inhibition vs. [Drug] and using a four-parameter dose–response curve with the following equation: Y=Bottom+ Top−Bottom/1+x^Hill Slope/IC50Hill Slope

Cytotoxicity assay (MTT) = details: African green monkey
Method: (§4) Vero cells were cultured in MEM (Dutscher, Brumath, France) supplemented with 10% fetal bovine serum, 1× non-essential amino acids, 100 U/mL, 100 µg/mL penicillin/streptomycin, and 2 mM L-glutamine at 37 °C in a humidified 5% CO2 atmosphere. […] At this time, each well was microscope-examined for detection of possible precipitate formation prior to remove the supernatant by flicking the plate. 100 µL of a 0.5 mg/mL PBS-dissolved MTT tetrazolium (stock solution at 5 mg/mL) was then added to each well [48]. The plates were then incubated for 1 h at 37 °C and 5% CO2 prior to removing the supernatant and adding 100 µL of DMSO. Plates were gently shaken to dissolve formazan crystals resulting from the MTT tetrazolium reduction by living cells and read at 570 nm with BioTek µQuant Microplate Spectrophotometer.

Vero cells = experiment: Cytotoxicity assay (MTT); details: ratio cytotoxicity (Vero)/activity on Plasmodium
Method: as §4

[2] = Homolysis of the NO–C bond measured by EPR
Method: Homolysis rate constants kd’ were measured by EPR and estimated using Equation (1) as reported many times in the literature. Further, Ea and kd were estimated using Equation (2). (1) ln([nitroxide]∞−[nitroxide]t/[nitroxide]∞)=−kd·t (2) Ea=−RT ln([…] kd′ )

[3] = tested on: P. falciparum chloroquine-resistant strain FcB1-Columbia; experiment: Antiplasmodial screen at 10 µM and chemosensitivity assay (SYBR Green I), FcB1-Columbia; type: cell-based, Plasmodium falciparum
[4] = tested on: P. falciparum F32-ART5 (artemisinin-resistant strain); experiment: Standard chemosensitivity assay (SYBR Green I), F32-ART5; type: cell-based, Plasmodium falciparum; details: Plasmodium falciparum, F32, 48 h, read-out: P. falciparum Strains Mean IC50, F32-ART5, 48 h; ^1 n = 1, ^2 n = 2
Method: as §1, §2, §3

Adult S. mansoni = experiment: In vitro antischistosomal activity on adult worms; type: cell-based, Schistosoma mansoni; details: for Time for the death of 100% worms / S. mansoni Mean Survival Time: adult S. mansoni, observation up to 8 h; for S. mansoni Mean Survival Time: single dose 100 µg/mL
In short: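 NMRI-strain adult worms, perfused from hamsters 42–47 days post-infection, held in RPMI 1640 (25 mM Hepes) with Tween 80/DMSO vehicle at 37 °C, 5% CO2 and exposed to 100 µg/mL drug, in duplicate. Moving worms counted hourly up to 8 h; no contraction over 30 s scored dead. Mean survival time from Kaplan–Meier analysis.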

[5] = design: method as in PMID 23051106, doi:10.1039/c2py20447a; details: cited from earlier work
[6] = tested on: P. falciparum F32-TEM (artemisinin-sensitive); experiment: Recrudescence assay, F32-TEM; type: cell-based, Plasmodium falciparum; details: 48 h treatment; artemisinin 18 µM, (RS/SR)-2F 5 µM; followed 30 days
Method: (§5) The lead compound, (RS/SR)-2F, was tested in a recrudescence assay, to assess cross-resistance with artemisinin, according to Ménard et al.. Briefly, F32-TEM and F32-ART5 parasites were synchronized at ring-stage by D-sorbitol treatment prior to treating them with the drug of interest for 48 h, then washed and allowed to grow in drug-free medium. Parasitemia was monitored every other day for 30 days to determine the day when parasite cultures reached the t0 initial parasitemia. […] Artemisinin was used as control to confirm differences in recrudescence times between both strains. Three independent experiments were performed for (RS/SR)-2F and artemisinin tested in parallel.

[7] = tested on: P. falciparum F32-ART5 (artemisinin-resistant); experiment: Recrudescence assay, F32-ART5; type: cell-based, Plasmodium falciparum; details: artemisinin 18 µM, (RS/SR)-2F 5 µM; for Median (Range) Recrudescence Time, F32-ART5: 48 h treatment, followed 30 days
Method: as §5

[8] = F32, 48 h, read-out: P. falciparum Strains Mean IC50, F32-TEM, 48 h, ^1 n = 1, ^2 n = 2
[9] = Plasmodium falciparum, FcB1-Columbia strain, read-out: IC50 on P. falciparum
[10] = Cytotoxicity Mean IC50, Vero cell lines, 48 h, MTT
[11] = read-out: IC50 on P. falciparum, FcB1-Columbia strain

SMILES	IC50 [1, 8] [µM]	IC50 at 48 h (Cytotoxicity assay (MTT); Vero cells) [µM]	Selectivity Index (Vero cells)	activation energy Ea ([2]; t-BuPh)	re-estimated homolysis rate constant kd at 120 °C ([2]; t-BuPh)	IC50 [3, 9] [µM]	IC50 [4] [µM]	Time for the death of 100% worms (Adult S. mansoni; 100 µg/mL) [h]	S. mansoni Mean Survival Time (Adult S. mansoni) [h]	IC50 at 48 h (Cytotoxicity assay (MTT); [10]) [µM]	T1/2 in vitro at 37 °C ([5]; aqueous medium) [h]	T1/2 in vitro at 37 °C ([5]; tert-butylbenzene) [h]	IC50 [3, 11] [µM]	Median (Range) Recrudescence Time, F32-TEM [6]	Median (Range) Recrudescence Time, F32-ART5 [7]	other results
CC(ON1C(C)(C)CC(O)CC1(C)C)c1cc(-c2ccccn2)nc(-c2ccccn2)c1 (racemic) [(R/S)-8F, 1-(1-([2,2′:6′,2′′-Terpyridin]-4′-yl)ethoxy)-2,2,6,6-tetramethylpiperidin-4-ol]	1.3	0.7 ± 0.4	0.5	133.3 ^k kJ/mol	0.46 10^−3 s^−1	0.14	1.1	5	5.0 ± 0.0	–	–	–	–	–	–	IC50 ([1]; F32, read-out: IC50 on the F32 strains, F32-TEM and F32-ART5 taken together): ~1 µM; homolysis rate constant kd′ ([2]; t-BuPh, 111 °C): 1.9 10^−4s^−1; half-life ([2]; tert-butylbenzene, half-lifetime t1/2 at 37 °C, t-BuPh): 941 days; half-life ([2]; tert-butylbenzene, t1/2 at 37 °C): 913 days
CCOP(=O)(OCC)[C@@H](N(O[C@H](C)c1ccncc1)C(C)(C)C)C(C)(C)C (relative stereo) [(RR/SS)-1a]	15	–	1	–	–	–	16	> 8	>8	17 ± 7	48 to 96	408	–	–	–	Mean (±SD) survival time – Adult S. mansoni (Adult S. mansoni; 100 µg/mL, observation up to 8 h (Table S1)): > 8 h
CCOP(=O)(OCC)[C@@H](N(O[C@@H](C)c1ccncc1)C(C)(C)C)C(C)(C)C (relative stereo) [(RS/SR)-1a]	7.6	–	3	–	–	–	11	–	1.2 ± 0.1	28 ± 29	48 to 96	408	> 3	–	–	IC50 ([3]; Plasmodium falciparum, FCB1, read-out: IC50 on P. falciparum, FcB1-Columbia strain): 3.8 µM
CCOP(=O)(OCC)C(N(OC(C)c1cc(-c2ccccn2)nc(-c2ccccn2)c1)C(C)(C)CO)C(C)(C)C (stereo not drawn) [(RS/SR)-2F, Diethyl(1-((1-([2,2′:6′,2′′-terpyridin]-4′-yl)ethoxy)(1-hydroxy-2-methylpropan-2-yl)amino)-2,2-dimethylpropyl)phosphonate]	0.6 ± 0.1	–	1	119.7 kJ/mol	29.9 10^−3 s^−1	–	0.5 ± 0.1	–	2.1 ± 0.1	0.8 ± 0.3	–	–	0.3	> 30 days	16 (15–17) Days	activation energy Ea ([2]; MeOH/water 1:1 pH = 7.4): 118.2 kJ/mol; re-estimated homolysis rate constant kd at 120 °C ([2]; MeOH/water 1:1 pH = 7.4): 46.7 10^−3 s^−1; half-lifetime t1/2 at 37 °C ([2]; MeOH/water 1:1 pH = 7.4 (aqueous medium)): 64.8 h; homolysis rate constant kd′ ([2]; MeOH/water 1:1 pH = 7.4, 81 °C): 8.7 10^−4s^−1; half-life ([2]; buffer, pH 7.4, half-lifetime t1/2 at 37 °C, MeOH/water 1:1 pH = 7.4 (aqueous medium)): 2 to 4 days; half-life ([2]; half-lifetime t1/2 at 37 °C, t-BuPh): 3 to 5 days; half-lifetime t1/2 at 37 °C ([2]; t-BuPh): 115 h; homolysis rate constant kd′ ([2]; t-BuPh, 81 °C): 5.3 10^−4s^−1
C[C@@H]1CC[C@H]2[C@@H](C)C(=O)O[C@@H]3O[C@@]4(C)CC[C@@H]1[C@]32OO4 [Artemisinin, reference compound]	0.02 ± 0.001	160 ± 12	8000	–	–	0.04 ± 0.007	0.02 ± 0.002	–	–	–	–	–	–	> 30 (16→30) Days	9 (7–11) Days	Mean ± SEM Difference of Recrudescence Time ([7]; F32-TEM versus F32-ART5): > 16.3 ± 3.7 days
